Data: ChEMBL document CHEMBL1671646, “Identification, characterization, and azole-binding properties of Mycobacterium smegmatis CYP164A2, a homolog of ML2088, the sole cytochrome P450 gene of Mycobacterium leprae” (Antimicrob Agents Chemother, 2009)

Key:
[1] = Binding affinity to Mycobacterium smegmatis ATCC 700084 CYP51 at pH7.5; set-up: species or system Mycolicibacterium smegmatis
[2] = Binding affinity to Mycobacterium smegmatis ATCC 700084 CYP51 in presence of 0.5 M NaCl at pH7.5; set-up: species or system Mycolicibacterium smegmatis
[3] = Binding affinity to Mycobacterium smegmatis ATCC 700084 CYP164A2 at pH7.5; set-up: species or system Mycolicibacterium smegmatis
[4] = Binding affinity to Mycobacterium smegmatis ATCC 700084 CYP164A2 in presence of 0.5 M NaCl at pH7.5; set-up: species or system Mycolicibacterium smegmatis
[5] = tested on: Mycolicibacterium smegmatis; assay: Selectivity ratio, ratio of Kd for Mycobacterium smegmatis ATCC 700084 CYP164A2 to Kd for Mycobacterium smegmatis ATCC 700084 CYP51
[6] = Selectivity ratio, ratio of Kd for Mycobacterium smegmatis ATCC 700084 CYP164A2 to Kd for Mycobacterium tuberculosis CYP121
[7] = target: T1, Sterol 14alpha-demethylase (Mycobacterium tuberculosis, UniProt P9WPP9)
T1 sequence (P9WPP9 whole entry): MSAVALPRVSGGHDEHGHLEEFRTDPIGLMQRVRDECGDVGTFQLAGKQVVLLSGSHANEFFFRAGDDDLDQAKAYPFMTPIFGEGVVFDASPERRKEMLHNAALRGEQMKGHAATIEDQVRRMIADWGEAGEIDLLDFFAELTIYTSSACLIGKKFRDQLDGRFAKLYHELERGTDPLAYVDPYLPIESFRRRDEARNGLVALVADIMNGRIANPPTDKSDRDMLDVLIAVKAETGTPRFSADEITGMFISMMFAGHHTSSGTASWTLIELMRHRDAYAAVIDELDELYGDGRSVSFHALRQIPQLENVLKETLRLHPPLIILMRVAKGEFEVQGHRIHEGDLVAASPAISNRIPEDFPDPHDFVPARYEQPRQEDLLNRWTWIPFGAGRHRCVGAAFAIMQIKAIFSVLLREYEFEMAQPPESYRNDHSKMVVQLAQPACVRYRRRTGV
Description: Binding affinity to Mycobacterium tuberculosis CYP51

Cytochrome P450 130 = target: T2, Cytochrome P450 130 (Mycobacterium tuberculosis, UniProt P9WPN5); assay: Binding affinity to Mycobacterium tuberculosis CYP130
T2 sequence (P9WPN5 whole entry): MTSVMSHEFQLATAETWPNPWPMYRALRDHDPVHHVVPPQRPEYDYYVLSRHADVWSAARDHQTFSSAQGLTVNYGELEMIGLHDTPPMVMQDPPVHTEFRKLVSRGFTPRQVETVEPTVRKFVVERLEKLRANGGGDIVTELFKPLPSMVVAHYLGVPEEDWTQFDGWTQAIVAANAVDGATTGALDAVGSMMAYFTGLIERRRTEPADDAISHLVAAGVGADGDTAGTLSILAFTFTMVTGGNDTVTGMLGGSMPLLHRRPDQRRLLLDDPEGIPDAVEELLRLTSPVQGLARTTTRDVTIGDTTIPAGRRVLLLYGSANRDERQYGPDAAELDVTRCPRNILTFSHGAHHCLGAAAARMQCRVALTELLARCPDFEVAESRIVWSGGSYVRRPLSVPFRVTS

[8] = tested on: Mycolicibacterium smegmatis; assay: Selectivity ratio of Kd for Mycobacterium smegmatis ATCC 700084 CYP164A2 in presence of 0.5 M NaCl to Kd for Mycobacterium smegmatis ATCC 700084 CYP164A2
[9] = target: T3, Lanosterol 14-alpha demethylase (Bos taurus, UniProt Q4PJW3); assay: Binding affinity to bovine CYP51
T3 sequence (Q4PJW3 whole entry): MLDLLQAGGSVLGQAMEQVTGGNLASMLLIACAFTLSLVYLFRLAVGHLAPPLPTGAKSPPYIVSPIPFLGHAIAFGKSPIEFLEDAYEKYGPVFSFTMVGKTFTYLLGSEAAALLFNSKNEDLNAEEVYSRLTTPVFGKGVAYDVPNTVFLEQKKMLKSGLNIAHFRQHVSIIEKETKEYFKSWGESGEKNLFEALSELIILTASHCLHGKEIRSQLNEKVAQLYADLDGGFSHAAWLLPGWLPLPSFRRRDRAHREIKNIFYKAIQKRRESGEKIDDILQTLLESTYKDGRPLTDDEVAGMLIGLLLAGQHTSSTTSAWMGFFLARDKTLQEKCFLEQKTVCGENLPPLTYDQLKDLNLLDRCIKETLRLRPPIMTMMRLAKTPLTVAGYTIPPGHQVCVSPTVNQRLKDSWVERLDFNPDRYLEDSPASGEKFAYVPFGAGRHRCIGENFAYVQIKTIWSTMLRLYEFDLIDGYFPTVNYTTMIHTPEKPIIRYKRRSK

Mycocyclosin synthase = target: T4, Mycocyclosin synthase (Mycobacterium tuberculosis, UniProt P9WPP7); assay: Binding affinity to Mycobacterium tuberculosis CYP121
T4 sequence (P9WPP7 whole entry): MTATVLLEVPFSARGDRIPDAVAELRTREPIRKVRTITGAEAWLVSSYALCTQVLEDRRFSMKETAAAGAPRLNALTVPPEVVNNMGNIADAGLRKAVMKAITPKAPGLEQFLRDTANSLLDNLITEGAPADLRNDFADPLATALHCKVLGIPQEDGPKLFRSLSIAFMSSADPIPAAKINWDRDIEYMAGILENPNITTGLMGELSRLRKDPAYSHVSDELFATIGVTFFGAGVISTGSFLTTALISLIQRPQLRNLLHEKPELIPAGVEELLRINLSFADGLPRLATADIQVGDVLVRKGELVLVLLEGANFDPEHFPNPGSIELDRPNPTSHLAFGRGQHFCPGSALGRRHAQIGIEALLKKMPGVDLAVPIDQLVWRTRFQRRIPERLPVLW

[10] = Binding affinity to Mycobacterium smegmatis ATCC 700084 CYP164A2 in presence of 0.05 M NaCl; set-up: species or system Mycolicibacterium smegmatis
[11] = Binding affinity to Mycobacterium smegmatis ATCC 700084 CYP164A2 in presence of 0.1 M NaCl; set-up: species or system Mycolicibacterium smegmatis
[12] = Binding affinity to Mycobacterium smegmatis ATCC 700084 CYP164A2 in presence of 0.2 M NaCl; set-up: species or system Mycolicibacterium smegmatis
[13] = Binding affinity to Mycobacterium smegmatis ATCC 700084 CYP164A2 in presence of 0.3 M NaCl; set-up: species or system Mycolicibacterium smegmatis
[14] = Binding affinity to Mycobacterium smegmatis ATCC 700084 CYP164A2 in presence of 1 M NaCl; set-up: species or system Mycolicibacterium smegmatis
[15] = Binding affinity to Mycobacterium smegmatis ATCC 700084 CYP164A2 in presence of 2 M NaCl; set-up: species or system Mycolicibacterium smegmatis
[16] = tested on: Mycolicibacterium smegmatis; assay: Selectivity ratio, ratio of Kd for Mycobacterium smegmatis ATCC 700084 CYP164A2 in presence of 0.3 M NaCl to Kd for Mycobacterium smegmatis ATCC 700084 CYP164A2

SMILES	Kd [1] [µM]	Kd [2] [µM]	Kd [3] [µM]	Kd ([4]; read-out: Kd) [µM]	Ratio [8]	other results
Clc1ccc(COC(Cn2ccnc2)c2ccc(Cl)cc2Cl)c(Cl)c1 (stereo not given) [MICONAZOLE]	1.16	0.94	2.48	5.57		Ratio [5]: 2; Ratio [6]: 17; Kd [7]: 0.2 µM
Clc1ccc(COC(Cn2ccnc2)c2ccc(Cl)cc2Cl)cc1 (stereo not given) [ECONAZOLE]	0.88	1.66	2.52			Kd [4]: 9.31 µM; Ratio [5]: 2; Ratio [6]: 17; Kd [7]: 0.2 µM
Clc1ccccc1C(c1ccccc1)(c1ccccc1)n1ccnc1 [CLOTRIMAZOLE]	0.62	0.43	1.2	2.66		Kd (Cytochrome P450 130): 13.3 µM
CCC(C)n1ncn(-c2ccc(N3CCN(c4ccc(OCC5COC(Cn6cncn6)(c6ccc(Cl)cc6Cl)O5)cc4)CC3)cc2)c1=O (stereo not given) [ITRACONAZOLE]	1.26	3	0.78	1.11	3	
CC(=O)N1CCN(c2ccc(OCC3COC(Cn4ccnc4)(c4ccc(Cl)cc4Cl)O3)cc2)CC1 (stereo not given) [KETOCONAZOLE]	7.45	4.59	5.69	7.48	3	Kd [9]: 0.32 µM
OC(Cn1cncn1)(Cn1cncn1)c1ccc(F)cc1F [FLUCONAZOLE]	19.5	5.94				Kd (Mycocyclosin synthase): 6 µM
C[C@@H](c1ncncc1F)[C@](O)(Cn1cncn1)c1ccc(F)cc1F [VORICONAZOLE]	5.94	4.57	3.24	19.7	3	Kd [10]: 8.36 µM; Kd [11]: 17.9 µM; Kd [12]: 20.1 µM; Kd [13]: 34 µM; Kd [14]: 9.85 µM; Kd [15]: 13.2 µM; Ratio [16]: 12
